Publication PMC5413024, “Mechanistic insights into the more potent effect of KP-54 compared to KP-10 in vivo” (PLoS ONE, 2017)

Assays:
c-FOS in GnRH neurons = test: Study 3: c-FOS activation in GnRH neurons after peripheral kisspeptin (dual-label immunohistochemistry, BSA-FITC to define the BBB); format: in vivo, mouse; conditions: male mice
Description: Induction of expression of the immediate early gene c-Fos is regarded as a marker of neuronal activation. KISS1R activation results in c-FOS induction, which allows identification of the GnRH neurons that are activated by KP. We examined co-localization of c-FOS protein in GnRH neurons by immunohistochemistry 2h after peripheral injection of either KP-10 or KP-54. […] 1 nmol KP-54 was injected first, followed by injection of 100 μl of a 50mg/ml solution of BSA-FITC into the tail vein. The mice were perfused with 4% paraformaldehyde/PBS 2 hrs after KP-54 injection and the brains processed for c-FOS, GnRH and BSA-FITC detection. A negative control for fluorescence was also performed with unconjugated BSA.
Free-floating, dual-label chromogen immunohistochemistry was undertaken as described previously. Mice were perfused with 4% paraformaldehyde in PBS and the brains removed and post-fixed for 1h in the same fixative. The brains were cut as 40 μm free-floating coronal sections using a vibratome (VT1000S; Leica). […]
Sections were examined using an Axioscope 2 plus microscope (Carl Zeiss) using bright-field or fluorescence microscopy. […] Where appropriate, BSA-FITC was detected by epifluorescence microscopy at an excitation wavelength of 490 nm and an emission wavelength of 525 nm (green). About fifteen successive sections containing GnRH neurons were counted per animal (n = 6 per treatment). […]

[1] = men / humans; ref [5], [30] (KP-10), ref [5] (KP-54); cited from earlier work
Excerpt: It should be noted, however that the RIA used to measure KP-54 may also detect shorter breakdown products of this protein that might be biologically inert. It is likely that the lack of GnRH neuronal activation and sustained LH release by KP-10 is mainly due to its instability. It is noteworthy that we failed ...

plasma LH levels [2] = test: Study 1: plasma LH after a single i.p. injection of kisspeptin; format: in vivo, mouse; conditions: male mice, single i.p. injection of 1 nmol, ELISA, mean ± s.e.m.
Description: Male mice received a single intraperitoneal (i.p.) injection of 100 μl of PBS (vehicle control; 137 mM NaCl, 2.7 mM KCl, 10 mM Na2HPO4, 1.8mM KH2PO4, pH 7.4), KP-10 (1 nmol), or KP-54 (1 nmol) in PBS and LH levels in the plasma measured at 10 min and 2 h after treatment to compare early and late responses points. We chose the 10 min point as some studies have shown that KP-10 injection results in maximal LH secretion after 10–15 min [16, 18]. 100 μl of blood was collected from a tail vein 10 min after injection, mixed with 5 μl EDTA and centrifuged at 10,000 x g for 10 min at 4°C. The plasma supernatant was stored at -20°C until assayed. Two hours after injection, mice were deeply anaesthetized with pentobarbital (100mg/kg i.p.), ~300 μl of blood was rapidly collected from the vena cava and processed as described above. Finally the mice were perfused intracardially with 20 ml of 4% paraformaldehyde in PBS. Brains were removed and incubated for 1 h in the same fixative as for perfusion and placed in PBS for sectioning and immunohistochemistry processing.
3–5 month old wild-type (129S6/SvEv) male mice were used in this study. The mice were housed in open cages on a 12 hour light cycle (lights on at 0700 h) at a controlled temperature (22°C), and were provided with food and water ad libitum. […]

plasma LH levels [3] = test: Study 2: plasma LH after a high dose or multiple i.p. injections of KP-10; format: in vivo, mouse; conditions: male mice, single i.p. injection of 1 nmol, mean ± s.e.m., n = 10
Description: Male mice received a single intraperitoneal (i.p.) injection of 100 μl of PBS (vehicle control), KP-10 (1 nmol), KP-10 (10 nmol), KP-54 (1 nmol) or a series of six i.p. injections (every 10 minutes over one hour) of KP-10 (1 nmol) to extend the duration of action of KP-10. 100 μl of blood was collected from a tail vein 10 min after the final injection and the mice were killed 2 hours after treatment by an injection of pentobarbital (100mg/kg i.p.). Blood was collected from the vena cava, mixed with 5 μl EDTA, centrifuged at 10,000 x g for 10 min at 4°C to obtain the plasma fraction, and stored at -20°C until assayed.
3–5 month old wild-type (129S6/SvEv) male mice were used in this study. The mice were housed in open cages on a 12 hour light cycle (lights on at 0700 h) at a controlled temperature (22°C), and were provided with food and water ad libitum. All experiments were performed under the authority of a United Kingdom Home Office Project License and were approved by a Cambridge Animal Ethics Committee.
Plasma LH was assayed using a commercial ELISA kit (LH Ultrasensitive Rodent ELISA, Endocrine Technologies Cat Number ERK 7010+) with a sensitivity of 0.3 ng/ml and 7% intra-assay and 10% inter-assay coefficients of variation. […]

In the case of CC[C@H](C)[C@H](NC(=O)[C@H](CCC(N)=O)NC(=O)[C@H](CCCNC(=N)N)NC(=O)[C@H](CO)NC(=O)[C@H](Cc1c[nH]cn1)NC(=O)[C@@H]1CCCN1C(=O)[C@H](C)NC(=O)[C@H](CO)NC(=O)[C@H](CC(C)C)NC(=O)CNC(=O)[C@@H]1CCCN1C(=O)[C@H](CCC(N)=O)NC(=O)[C@H](CCC(N)=O)NC(=O)[C@H](CCCNC(=N)N)NC(=O)[C@H](CO)NC(=O)CNC(=O)[C@H](CO)NC(=O)[C@H](CO)NC(=O)[C@H](CCC(=O)O)NC(=O)[C@@H]1CCCN1C(=O)[C@@H]1CCCN1C(=O)[C@@H]1CCCN1C(=O)[C@H](CO)NC(=O)[C@H](CC(C)C)NC(=O)[C@H](CO)NC(=O)[C@@H](NC(=O)CN)[C@@H](C)O)C(=O)N1CCC[C@H]1C(=O)N[C@@H](C)C(=O)N1CCC[C@H]1C(=O)N[C@@H](CCC(N)=O)C(=O)NCC(=O)N[C@@H](C)C(=O)N[C@H](C(=O)N[C@@H](CC(C)C)C(=O)N[C@H](C(=O)N[C@@H](CCC(N)=O)C(=O)N[C@@H](CCCNC(=N)N)C(=O)N[C@@H](CCC(=O)O)C(=O)N[C@@H](CCCCN)C(=O)N[C@@H](CC(=O)O)C(=O)N[C@@H](CC(C)C)C(=O)N1CCC[C@H]1C(=O)N[C@@H](CC(N)=O)C(=O)N[C@@H](Cc1ccc(O)cc1)C(=O)N[C@@H](CC(N)=O)C(=O)N[C@@H](Cc1c[nH]c2ccccc12)C(=O)N[C@@H](CC(N)=O)C(=O)N[C@@H](CO)C(=O)N[C@@H](Cc1ccccc1)C(=O)NCC(=O)N[C@@H](CC(C)C)C(=O)N[C@@H](CCCNC(=N)N)C(=O)N[C@@H](Cc1ccccc1)C(N)=O)C(C)C)C(C)C [KP-54], the “c-FOS activation of GnRH neurons behind the blood brain barrier (functional surrogate for BBB crossing)” value (c-FOS in GnRH neurons; 1 nmol KP-54 plus i.v. BSA-FITC (does not cross the BBB), 2 h, n = 3) is listed as “c-FOS-positive GnRH neurons in hypothalamic areas that were negative for BSA-FITC”, the “percentage of GnRH neurons positive for c-FOS (all regions)” value (c-FOS in GnRH neurons; 2 h after peripheral injection of 1 nmol, n = 6, vehicle 0.54 ± 0.15%) is listed as 22.07 ± 2.96% and the “half-life in the blood stream in humans” value [1] is listed as 28 min. For the same compound, the “plasma LH level 10 min post-injection” value (plasma LH levels [2]; tail vein blood, n = 8, PBS 0.06 ± 0.04) was 5.70 ± 0.69 ng/mL, the “plasma LH level 2 hours post-injection” value (plasma LH levels [2]; vena cava blood, n = 8) was 6.42 ± 1.74 ng/mL and the “plasma LH level at 2 hrs” value (plasma LH levels [3]) was 9.62 ± 1.67 ng/mL.
